Measured values from patent US6737383B1, “Herbicidal oxadiazolidines” (priority 1999, dated 2004).

Tests used:
blackgrass = assay: Test B pre/postemergence blackgrass; type: in vivo, Alopecurus myosuroides; conditions: for Blackgrass plant response rating: scale of 0 to 10 where 0 is no effect and 10 is complete control
Method in brief: (§1)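 Test chemicals in a non-phytotoxic solvent mixture with surfactant were sprayed preemergence onto planted seeds and postemergence onto plants 2 to 18 cm tall (1- to 4-leaf stage). After twelve to sixteen days in a greenhouse, injury was visually rated against untreated controls from 0 (no effect) to 10 (complete control).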

surinam grass = assay: Test B pre/postemergence surinam grass; type: in vivo, Brachiaria decumbens; conditions: for B. signalgrass plant response rating: scale of 0 to 10 where 0 is no effect and 10 is complete control
Method in brief: as §1

cocklebur = assay: Test B pre/postemergence cocklebur; type: in vivo, Xanthium strumarium; conditions: for Cocklebur plant response rating: scale of 0 to 10 where 0 is no effect and 10 is complete control
Method in brief: as §1

corn = assay: Test B pre/postemergence corn; type: in vivo, Zea mays; conditions: for Corn plant response rating: scale of 0 to 10 where 0 is no effect and 10 is complete control
Method in brief: as §1

crabgrass = assay: Test B pre/postemergence crabgrass; type: in vivo, Digitaria sanguinalis; conditions: for Crabgrass plant response rating: scale of 0 to 10 where 0 is no effect and 10 is complete control
Method in brief: as §1

giant foxtail = assay: Test B pre/postemergence giant foxtail; type: in vivo, Setaria faberii; conditions: for Giant foxtail plant response rating: scale of 0 to 10 where 0 is no effect and 10 is complete control
Method in brief: as §1

morningglory = assay: Test B pre/postemergence morningglory; type: in vivo, Ipomoea hederacea; conditions: for Morningglory plant response rating: scale of 0 to 10 where 0 is no effect and 10 is complete control
Method in brief: as §1

pigweed = assay: Test B pre/postemergence pigweed; type: in vivo, Amaranthus retroflexus; conditions: for Redroot pigweed plant response rating: scale of 0 to 10 where 0 is no effect and 10 is complete control
Method in brief: as §1

rape = assay: Test B pre/postemergence rape; type: in vivo, Brassica napus; conditions: for Rape plant response rating: scale of 0 to 10 where 0 is no effect and 10 is complete control
Method in brief: as §1

soybean = assay: Test B pre/postemergence soybean; type: in vivo, Glycine max; conditions: for Soybean plant response rating: scale of 0 to 10 where 0 is no effect and 10 is complete control
Method in brief: as §1

sugar beet = assay: Test B pre/postemergence sugar beet; type: in vivo, Beta vulgaris; conditions: for Sugarbeets plant response rating: scale of 0 to 10 where 0 is no effect and 10 is complete control
Method in brief: as §1

velvetleaf = assay: Test B pre/postemergence velvetleaf; type: in vivo, Abutilon theophrasti; conditions: for Velvetleaf plant response rating: scale of 0 to 10 where 0 is no effect and 10 is complete control
Method in brief: as §1

wild oat = assay: Test B pre/postemergence wild oat; type: in vivo, Avena fatua; conditions: for Wild oats plant response rating: scale of 0 to 10 where 0 is no effect and 10 is complete control
Method in brief: as §1

purple nutsedge = assay: Test B pre/postemergence purple nutsedge; type: in vivo, Cyperus rotundus; conditions: for Nutsedge plant response rating: scale of 0 to 10 where 0 is no effect and 10 is complete control
Method in brief: as §1

rice = assay: Test B flood test rice; type: in vivo, Oryza sativa
Method in brief: (§2)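 Plants were grown to the 2-leaf stage before treatment with test chemical, then held in a greenhouse for twelve to sixteen days. Injury was visually rated against untreated controls on a 0–10 scale, where 0 is no effect and 10 is complete control.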

duck salad = assay: Test B flood test duck salad; type: in vivo, Heteranthera limosa
Method in brief: as §2

[1] = Postemergence, Rate 125 g/ha, scale 0 to 10, 0 is no effect, 10 is complete control
[2] = Postemergence, Rate 250 g/ha, scale 0 to 10, 0 is no effect, 10 is complete control
[3] = Preemergence, Rate 62 g/ha, scale 0 to 10 (0 no effect, 10 complete control)
[4] = Rate 500 g/ha, Postemergence, scale 0 to 10, 0 no effect, 10 complete control
[5] = Rate 62 g/ha, flood test species, Pre-emergence, visual evaluation after twelve to sixteen days
[6] = Rate 125 g/ha, under heading Pre-emergence, flood test species, visual evaluation after twelve to sixteen days
[7] = Rate 250 g/ha, Pre-emergence, flood-test species, scale 0 to 10, 0 is no effect, 10 is complete control
[8] = Rate 500 g/ha, Pre-emergence, flood test species, scale 0 to 10 (0 no effect, 10 complete control)

CC(C)N(C(=O)n1oc(=O)n(CCl)c1=O)c1ccc(F)cc1 [Compound 376]
0: Plant response rating, Blackgrass (blackgrass; [1]) | Plant response rating, Blackgrass (blackgrass; [2]) | Plant response rating, Blackgrass (blackgrass; [3]) | Blackgrass plant response rating (0 to 10 scale) (blackgrass; Preemergence, Rate 125 g/ha) | Blackgrass plant response rating (blackgrass; Preemergence, Rate 250 g/ha) | Blackgrass plant response rating (blackgrass; Preemergence, Rate 500 g/ha) | Blackgrass plant response rating (blackgrass; Rate 62 g/ha, Postemergence) | Plant response rating, Blackgrass (blackgrass; [4]) | Plant response rating, B. signalgrass (surinam grass; [1]) | Plant response rating, B. signalgrass (surinam grass; [2]) | Plant response rating, B. signalgrass (surinam grass; [3]) | B. signalgrass plant response rating (0 to 10 scale, 0 is no effect, 10 is complete control) (surinam grass; Preemergence, Rate 125 g/ha) | B. signalgrass plant response rating (surinam grass; Preemergence, Rate 250 g/ha) | B. signalgrass plant response rating (surinam grass; Preemergence, Rate 500 g/ha) | B. signalgrass plant response rating (surinam grass; Rate 62 g/ha, Postemergence) | Plant response rating, B. signalgrass (surinam grass; [4]) | Plant response rating, Cocklebur (cocklebur; [1]) | Plant response rating, Cocklebur (cocklebur; [2]) | Plant response rating, Cocklebur (cocklebur; [3]) | Cocklebur plant response rating (0 to 10 scale) (cocklebur; Preemergence, Rate 125 g/ha) | Cocklebur plant response rating (cocklebur; Preemergence, Rate 250 g/ha) | Cocklebur plant response rating (cocklebur; Preemergence, Rate 500 g/ha) | Cocklebur plant response rating (cocklebur; Rate 62 g/ha, Postemergence) | Plant response rating, Cocklebur (cocklebur; [4]) | Plant response rating, Corn (corn; [1]) | Plant response rating, Corn (corn; [2]) | Plant response rating, Corn (corn; [3]) | Corn plant response rating (0 to 10 scale) (corn; Preemergence, Rate 125 g/ha) | Corn plant response rating (corn; Preemergence, Rate 250 g/ha) | Corn plant response rating (corn; Preemergence, Rate 500 g/ha) | Corn plant response rating (corn; Rate 62 g/ha, Postemergence) | Plant response rating, Corn (corn; [4]) | Plant response rating, Crabgrass (crabgrass; [1]) | Plant response rating, Crabgrass (crabgrass; [2]) | Plant response rating, Crabgrass (crabgrass; [3]) | Crabgrass plant response rating (0 to 10 scale) (crabgrass; Preemergence, Rate 125 g/ha) | Crabgrass plant response rating (crabgrass; Preemergence, Rate 250 g/ha) | Crabgrass plant response rating (crabgrass; Preemergence, Rate 500 g/ha) | Crabgrass plant response rating (crabgrass; Rate 62 g/ha, Postemergence) | Plant response rating, Crabgrass (crabgrass; [4]) | Plant response rating, Giant foxtail (giant foxtail; [1]) | Plant response rating, Giant foxtail (giant foxtail; [2]) | Plant response rating, Giant foxtail (giant foxtail; [3]) | Giant foxtail plant response rating (0 to 10 scale) (giant foxtail; Preemergence, Rate 125 g/ha) | Giant foxtail plant response rating (giant foxtail; Preemergence, Rate 250 g/ha) | Giant foxtail plant response rating (giant foxtail; Preemergence, Rate 500 g/ha) | Giant foxtail plant response rating (giant foxtail; Rate 62 g/ha, Postemergence) | Plant response rating, Giant foxtail (giant foxtail; [4]) | Plant response rating, Morningglory (morningglory; [1]) | Plant response rating, Morningglory (morningglory; [2]) | Plant response rating, Morningglory (morningglory; [3]) | Morningglory plant response rating (0 to 10 scale) (morningglory; Preemergence, Rate 125 g/ha) | Morningglory plant response rating (morningglory; Preemergence, Rate 250 g/ha) | Morningglory plant response rating (morningglory; Preemergence, Rate 500 g/ha) | Morningglory plant response rating (morningglory; Rate 62 g/ha, Postemergence) | Plant response rating, Morningglory (morningglory; [4]) | Plant response rating, Redroot pigweed (pigweed; [1]) | Plant response rating, Redroot pigweed (pigweed; [2]) | Plant response rating, Redroot pigweed (pigweed; [3]) | Redroot pigweed plant response rating (0 to 10 scale) (pigweed; Preemergence, Rate 125 g/ha) | Redroot pigweed plant response rating (pigweed; Preemergence, Rate 250 g/ha) | Redroot pigweed plant response rating (pigweed; Preemergence, Rate 500 g/ha) | Redroot pigweed plant response rating (pigweed; Rate 62 g/ha, Postemergence) | Plant response rating, Redroot pigweed (pigweed; [4]) | Plant response rating, Rape (rape; [1]) | Plant response rating, Rape (rape; [2]) | Plant response rating, Rape (rape; [3]) | Rape plant response rating (0 to 10 scale) (rape; Preemergence, Rate 125 g/ha) | Rape plant response rating (rape; Preemergence, Rate 250 g/ha) | Rape plant response rating (rape; Preemergence, Rate 500 g/ha) | Rape plant response rating (rape; Rate 62 g/ha, Postemergence) | Plant response rating, Rape (rape; [4]) | Plant response rating, Soybean (soybean; [1]) | Plant response rating, Soybean (soybean; [2]) | Plant response rating, Soybean (soybean; [3]) | Soybean plant response rating (0 to 10 scale) (soybean; Preemergence, Rate 125 g/ha) | Soybean plant response rating (soybean; Preemergence, Rate 250 g/ha) | Soybean plant response rating (soybean; Preemergence, Rate 500 g/ha) | Soybean plant response rating (soybean; Rate 62 g/ha, Postemergence) | Plant response rating, Soybean (soybean; [4]) | Plant response rating, Sugarbeets (sugar beet; [1]) | Plant response rating, Sugarbeets (sugar beet; [2]) | Plant response rating, Sugarbeets (sugar beet; [3]) | Sugarbeets plant response rating (0 to 10 scale) (sugar beet; Preemergence, Rate 125 g/ha) | Sugarbeets plant response rating (sugar beet; Preemergence, Rate 250 g/ha) | Sugarbeets plant response rating (sugar beet; Preemergence, Rate 500 g/ha) | Sugarbeets plant response rating (sugar beet; Rate 62 g/ha, Postemergence) | Plant response rating, Sugarbeets (sugar beet; [4]) | Plant response rating, Velvetleaf (velvetleaf; [1]) | Plant response rating, Velvetleaf (velvetleaf; [2]) | Plant response rating, Velvetleaf (velvetleaf; [3]) | Velvetleaf plant response rating (0 to 10 scale) (velvetleaf; Preemergence, Rate 125 g/ha) | Velvetleaf plant response rating (velvetleaf; Preemergence, Rate 250 g/ha) | Velvetleaf plant response rating (velvetleaf; Preemergence, Rate 500 g/ha) | Velvetleaf plant response rating (velvetleaf; Rate 62 g/ha, Postemergence) | Plant response rating, Velvetleaf (velvetleaf; [4]) | Plant response rating, Wild oats (wild oat; [1]) | Plant response rating, Wild oats (wild oat; [2]) | Plant response rating, Wild oats (wild oat; [3]) | Wild oats plant response rating (0 to 10 scale) (wild oat; Preemergence, Rate 125 g/ha) | Wild oats plant response rating (wild oat; Preemergence, Rate 250 g/ha) | Wild oats plant response rating (wild oat; Preemergence, Rate 500 g/ha) | Wild oats plant response rating (wild oat; Rate 62 g/ha, Postemergence) | Plant response rating, Wild oats (wild oat; [4]) | Plant response rating, Nutsedge (purple nutsedge; [1]) | Plant response rating, Nutsedge (purple nutsedge; [2]) | Plant response rating, Nutsedge (purple nutsedge; [3]) | Nutsedge plant response rating (0 to 10 scale) (purple nutsedge; Preemergence, Rate 125 g/ha) | Nutsedge plant response rating (purple nutsedge; Preemergence, Rate 250 g/ha) | Nutsedge plant response rating (purple nutsedge; Preemergence, Rate 500 g/ha) | Nutsedge plant response rating (purple nutsedge; Rate 62 g/ha, Postemergence) | Plant response rating, Nutsedge (purple nutsedge; [4]) | Plant response rating, Rice (0 to 10 scale, 0 is no effect, 10 is complete control) (rice; [5]) | Rice plant response rating (0 to 10 scale, 0 is no effect, 10 is complete control) (rice; [6]) | Rice plant response rating (rice; [7]) | Rice plant response rating (rice; [8]) | Plant response rating, Ducksalad (0 to 10 scale, 0 is no effect, 10 is complete control) (duck salad; [5]) | Ducksalad plant response rating (0 to 10 scale, 0 is no effect, 10 is complete control) (duck salad; [6]) | Ducksalad plant response rating (duck salad; [7]) | Ducksalad plant response rating (duck salad; [8])
